Values after ≈ are worked out from the molar mass of the structure shown.
Assays:
Assay type in all cases: functional
Tetranychus urticae = test: Acaricidal activity against Tetranychus urticae (two-spotted spider mite) in compound treated kidney bean leaf assessed as larvicidal activity
Plutella xylostella = test: Insecticidal activity against Plutella xylostella (diamondback moth) in compound treated radish leaf assessed as mortality at 500 ppm
Myzus persicae = test: Insecticidal activity against Myzus persicae (green peach aphid) in compound treated radish leaf assessed as mortality at 500 ppm
Nephotettix cincticeps = test: Insecticidal activity against Nephotettix cincticeps (green rice leafhopper) in compound treated rice seedlings assessed as mortality at 500 ppm

SMILES	LC50 (Tetranychus urticae)	mortality at 500 ppm (Plutella xylostella)	mortality at 500 ppm (Myzus persicae)	mortality at 500 ppm (Nephotettix cincticeps)
Fc1cccc(C2COC(c3c(F)cccc3F)=N2)c1 (stereo not drawn)	1 µg/mL (≈ 3.61 µM)	0%	0%	60%
CCCCc1ccc(C2COC(c3c(F)cccc3F)=N2)cc1 (stereo not drawn)	< 0.001 µg/mL	0%	100%	10%
CCCCCCc1ccc(C2COC(c3c(F)cccc3F)=N2)cc1Cl (stereo not drawn)	0.1 µg/mL (≈ 0.265 µM)	0%	0%	0%
CCOc1cc(Br)ccc1C1COC(c2c(F)cccc2F)=N1 (stereo not drawn)	0.1 µg/mL (≈ 0.262 µM)	10%	0%	100%
CCCCCCCCCCCCCOc1ccc(C2COC(c3c(F)cccc3F)=N2)cc1 (stereo not drawn)	0.001 µg/mL (≈ 0.00219 µM)	35%	85%	0%
CCCCCCCCCCCCc1ccc(C2COC(c3c(F)cccc3F)=N2)c(Cl)c1 (stereo not drawn)	0.1 µg/mL (≈ 0.216 µM)	60%	0%	0%
COc1cc(F)ccc1C1COC(c2c(F)cccc2F)=N1 (stereo not drawn)	0.1 µg/mL (≈ 0.325 µM)	10%	100%	100%
CCCCCCCCCCOc1ccc(C2COC(c3c(F)cccc3F)=N2)cc1 (stereo not drawn)	< 0.001 µg/mL	100%	100%	10%
Fc1ccc(C2COC(c3c(F)cccc3F)=N2)cc1F (stereo not drawn)	0.1 µg/mL (≈ 0.339 µM)	0%	0%	0%
CCCCCCCCCSc1ccc(C2COC(c3c(F)cccc3F)=N2)cc1 (stereo not drawn)	0.01 µg/mL (≈ 0.0239 µM)	85%	60%	0%
Cc1ccccc1C1COC(c2c(F)cccc2F)=N1 (stereo not drawn)	10 µg/mL (≈ 36.6 µM)	0%	0%	10%
CC(C)Cc1ccc(C2COC(c3c(F)cccc3F)=N2)c(Cl)c1 (stereo not drawn)	< 0.001 µg/mL	100%	100%	60%
Fc1ccccc1C1COC(c2c(F)cccc2F)=N1 (stereo not drawn)	1 µg/mL (≈ 3.61 µM)	10%	60%	35%
CCCCCc1ccc(C2COC(c3c(F)cccc3F)=N2)c(OCC)c1 (stereo not drawn)	< 0.001 µg/mL	35%	85%	100%
COc1ccc(C2COC(c3c(F)cccc3F)=N2)cc1 (stereo not drawn)	1 µg/mL (≈ 3.46 µM)	0%	85%	10%
CCOc1cc(Cl)ccc1C1COC(c2c(F)cccc2F)=N1 (stereo not drawn)	0.1 µg/mL (≈ 0.296 µM)	100%	100%	100%
CCCCCCCCc1ccc(C2COC(c3c(F)cccc3F)=N2)c(C)c1 (stereo not drawn)	< 0.001 µg/mL	100%	100%	100%
CCCCCCc1ccc(C2COC(c3c(F)cccc3F)=N2)c(Cl)c1 (stereo not drawn)	< 0.001 µg/mL	100%	100%	100%
CCCCCCOc1cc(C(C)(C)C)ccc1C1COC(c2c(F)cccc2F)=N1 (stereo not drawn)	0.1 µg/mL (≈ 0.241 µM)	100%	10%	60%

SMILES	LC50 (Tetranychus urticae)	mortality at 500 ppm (Plutella xylostella)	mortality at 500 ppm (Myzus persicae)	mortality at 500 ppm (Nephotettix cincticeps)
Fc1cc(C2COC(c3c(F)cccc3F)=N2)ccc1Cl (stereo not drawn)	0.01 µg/mL (≈ 0.0321 µM)	35%	100%	60%
CC(C)c1ccc(C2COC(c3c(F)cccc3F)=N2)cc1 (stereo not drawn)	0.001 µg/mL (≈ 0.00332 µM)	0%	100%	60%
COc1cc(Cl)ccc1C1COC(c2c(F)cccc2F)=N1 (stereo not drawn)	0.1 µg/mL (≈ 0.309 µM)	10%	100%	100%
CN(C)c1ccc(C2COC(c3c(F)cccc3F)=N2)cc1 (stereo not drawn)	10 µg/mL (≈ 33.1 µM)	0%	85%	0%
Fc1cccc(F)c1C1=NC(c2ccc(OC(F)(F)F)cc2)CO1 (stereo not drawn)	0.001 µg/mL (≈ 0.00291 µM)	85%	100%	35%
CCCCOc1cc(C(C)(C)C)ccc1C1COC(c2c(F)cccc2F)=N1 (stereo not drawn)	0.01 µg/mL (≈ 0.0258 µM)	35%	100%	0%
CCCCCCCCc1ccc(C2COC(c3c(F)cccc3F)=N2)c(Cl)c1 (stereo not drawn)	< 0.001 µg/mL	85%	100%	0%
CSc1ccc(C2COC(c3c(F)cccc3F)=N2)cc1 (stereo not drawn)	0.1 µg/mL (≈ 0.327 µM)	0%	100%	0%
CCCCCCCCCCCCCCCc1ccc(C2COC(c3c(F)cccc3F)=N2)cc1 (stereo not drawn)	0.001 µg/mL (≈ 0.00213 µM)	85%	0%	0%
CCCCCCCCc1ccc(C2COC(c3c(F)cccc3F)=N2)cc1 (stereo not drawn)	< 0.001 µg/mL	85%	100%	0%
C[Si](C)(C)c1ccc(C2COC(c3c(F)cccc3F)=N2)cc1 (stereo not drawn)	< 0.001 µg/mL	100%	100%	60%
CS(=O)(=O)c1ccc(C2COC(c3c(F)cccc3F)=N2)cc1 (stereo not drawn)	100 µg/mL (≈ 296 µM)	60%	85%	0%
CCc1cccc(C2COC(c3c(F)cccc3F)=N2)c1 (stereo not drawn)	10 µg/mL (≈ 34.8 µM)	0%	0%	60%
Fc1cc(Cl)ccc1C1COC(c2c(F)cccc2F)=N1 (stereo not drawn)	< 0.001 µg/mL	0%	100%	0%
Fc1cccc(F)c1C1=NC(c2cccc(Cl)c2)CO1 (stereo not drawn)	1 µg/mL (≈ 3.4 µM)	0%	0%	0%
CCCCCCCCCCc1ccc(C2COC(c3c(F)cccc3F)=N2)c(F)c1 (stereo not drawn)	0.001 µg/mL (≈ 0.0024 µM)	100%	10%	0%
Fc1ccc(C2COC(c3c(F)cccc3F)=N2)cc1Cl (stereo not drawn)	0.1 µg/mL (≈ 0.321 µM)	60%	100%	10%
Fc1cccc(F)c1C1=NC(c2ccc(Cl)c(Cl)c2)CO1 (stereo not drawn)	0.1 µg/mL (≈ 0.305 µM)	60%	100%	0%
Fc1cccc(F)c1C1=NC(c2ccc(Br)cc2)CO1 (stereo not drawn)	0.001 µg/mL (≈ 0.00296 µM)	35%	100%	10%

SMILES	LC50 (Tetranychus urticae)	mortality at 500 ppm (Plutella xylostella)	mortality at 500 ppm (Myzus persicae)	mortality at 500 ppm (Nephotettix cincticeps)
CCCCCCCc1ccc(C2COC(c3c(F)cccc3F)=N2)c(F)c1 (stereo not drawn)	< 0.001 µg/mL	100%	100%	0%
CC(C)Cc1ccc(C2COC(c3c(F)cccc3F)=N2)cc1 (stereo not drawn)	< 0.001 µg/mL	60%	100%	0%
Cc1ccc(C2COC(c3c(F)cccc3F)=N2)cc1 (stereo not drawn)	0.1 µg/mL (≈ 0.366 µM)	0%	100%	60%
CCOc1cc(F)ccc1C1COC(c2c(F)cccc2F)=N1 (stereo not drawn)	0.001 µg/mL (≈ 0.00311 µM)	85%	100%	100%
CCCCCCCCc1ccc(C2COC(c3c(F)cccc3F)=N2)c(F)c1 (stereo not drawn)	< 0.001 µg/mL	100%	100%	0%
C[S+]([O-])c1ccc(C2COC(c3c(F)cccc3F)=N2)cc1 (stereo not drawn)	10 µg/mL (≈ 31.1 µM)	60%	60%	0%
CCCCCCc1ccc(C2COC(c3c(F)cccc3F)=N2)cc1F (stereo not drawn)	0.1 µg/mL (≈ 0.277 µM)	0%	0%	0%
CC(C)Oc1ccc(C2COC(c3c(F)cccc3F)=N2)cc1 (stereo not drawn)	0.001 µg/mL (≈ 0.00315 µM)	0%	100%	0%
Cc1cccc(C2COC(c3c(F)cccc3F)=N2)c1 (stereo not drawn)	10 µg/mL (≈ 36.6 µM)	0%	0%	0%
COc1cccc(C2COC(c3c(F)cccc3F)=N2)c1 (stereo not drawn)	1 µg/mL (≈ 3.46 µM)	0%	0%	0%
CCCCCCCCc1ccc(C2COC(c3c(F)cccc3F)=N2)c(OC)c1 (stereo not drawn)	0.01 µg/mL (≈ 0.0249 µM)	85%	100%	0%
CCCCCCCCCCc1ccc(C2COC(c3c(F)cccc3F)=N2)c(Cl)c1 (stereo not drawn)	0.1 µg/mL (≈ 0.23 µM)	85%	0%	0%
CCOc1ccccc1C1COC(c2c(F)cccc2F)=N1 (stereo not drawn)	10 µg/mL (≈ 33 µM)	10%	0%	100%
CCCCOc1ccc(C2COC(c3c(F)cccc3F)=N2)cc1 (stereo not drawn)	< 0.001 µg/mL	0%	100%	0%
CCCCCCCCCCc1ccc(C2COC(c3c(F)cccc3F)=N2)c(OC)c1 (stereo not drawn)	0.01 µg/mL (≈ 0.0233 µM)	85%	100%	10%
CCc1ccccc1C1COC(c2c(F)cccc2F)=N1 (stereo not drawn)	1 µg/mL (≈ 3.48 µM)	0%	0%	60%
Cc1cc(Cl)ccc1C1COC(c2c(F)cccc2F)=N1 (stereo not drawn)	0.1 µg/mL (≈ 0.325 µM)	10%	100%	35%
CCCOc1cc(C(C)C)ccc1C1COC(c2c(F)cccc2F)=N1 (stereo not drawn)	< 0.001 µg/mL	85%	100%	100%
CC(C)Sc1ccc(C2COC(c3c(F)cccc3F)=N2)cc1 (stereo not drawn)	0.1 µg/mL (≈ 0.3 µM)	10%	85%	10%

Source: ChEMBL document CHEMBL3045663, “Synthesis and Activity of Novel Acaricidal/Insecticidal 2, 4-Diphenyl-1, 3-oxazolines” (J Pestic Sci, 2002)
